Literature values in patent US20080292666A1, “Preparation for Preventing or Treating Calcium Deficiency Conditions In Mammals” (priority 2005, published 2008).

Assays:
[1] = for effect of oral drenches on blood Ca-concentrations: aqueous solutions or slurries, cows
[2] = test system: parturient paresis in dairy cows; conditions: 120 g calcium as calcium propionate cylinders vs 216 g as oily calcium chloride solution
[3] = 75 g of calcium as paste, oral

## [Ca+2].[Cl-].[Cl-] [calcium chloride]
[1]; 50 g of Ca as CaCl2
  rise of plasma Ca-concentrations after oral CaCl2 compared with i.v.: raised plasma Ca-concentrations to the same extent as 4° g. of Ca as CaCl2 given i.v.
[1]
  effect of oral drenches on blood Ca-concentrations: increased blood Ca-concentrations more quickly than did Ca-propionate
[1]; oral, 24 h (120 g of Ca)
  total amount administered in 24 h not to be exceeded to avoid severe metabolic acidosis: ≤ 288 g

## CCC(=O)[O-].CCC(=O)[O-].[Ca+2] [calcium propionate]
[1]
  effect of oral drenches on blood Ca-concentrations: effects lasted longer
[2]
  effectiveness in the prevention of milk fever: as effective in the prevention of milk fever as was treatment with calcium chloride
[3]
  persistence of the increase in plasma calcium: sustained for a longer period
  rapidity of plasma calcium increase: did not increase plasma calcium as rapidly as 75° g. calcium as CaCl2
